{
  "source": "patent US10758467B2",
  "about": "“Highly substantive water-soluble UV absorbers and process for preparation thereof” (GALAXY SURFACTANTS LTD., priority 2018, dated 2020)",
  "key": {"[1]": {"test": "UV absorption (molar extinction coefficient)", "type": "physicochemical"}, "[2]": {"test_system": "Propionibacterium acnesMTCC 1951", "test": "Minimum growth inhibitory concentration", "type": "cell-based, Propionibacterium acnes", "excerpt": "(§1) The doubly quaternized UV absorbers of Formula I (R═C8H17 to C22H45) according to the invention show decent antimicrobial properties. The minimum growth inhibitory concentrations against G +ve, G −ve bacteria and against the yeast for two compounds of Formula I of Example 3 and Example 4 are given in the Table III. This antimicrobial property is useful for preservation of personal care formulations. The antimicrobial activity against dandruff causing microorganism, Malassezia furfur is useful for hair care applications."}, "[3]": {"test_system": "Staphylococcus aureus ATCC6538", "test": "Minimum growth inhibitory concentration", "type": "cell-based", "excerpt": "as §1"}, "[4]": {"test_system": "Escherichia coli ATCC 10142", "test": "Minimum growth inhibitory concentration", "type": "cell-based", "excerpt": "as §1"}, "[5]": {"test_system": "Candida albicans ATCC 10231", "test": "Minimum growth inhibitory concentration", "type": "cell-based", "excerpt": "as §1"}, "[6]": {"test_system": "Malassezia furfur MTCC 1374", "test": "Minimum growth inhibitory concentration", "type": "cell-based", "excerpt": "as §1"}, "[7]": {"test_system": "Pseudomonas aeruginosa Immune type IV", "test": "Minimum growth inhibitory concentration", "type": "cell-based", "excerpt": "as §1"}, "[8]": {"test": "Zeta potential (Zetasizer Nano, Malvern) and charge density", "type": "physicochemical", "conditions": "for Zeta potential: 1% dispersion", "excerpt": "Zeta potential of 1% dispersion of doubly quaternized UV absorber, Formula I, R═C18H37 and R1═OCH3 is found to be […] (Zetasizer Nano, Malvern). […] Also the high zeta potential (+46 mV) ensures the stability of colloidal formulations.\nMolar extinction coefficient, ∈, in water: 19,700 mol^−1cm^−1 at 307 nm. Zeta potential: +46 mV, Charge density: 0.3066 meq/gram"}, "[9]": {"test": "Surface-active properties (surface tension of water, CMC)", "type": "physicochemical", "description": "They reduce the surface tension of water from 72 Mn/m to 35 Mn/m at 1.0% concentration, at 30° C. These quaternized UV absorbers behave like cationic surface active agents and can be easily titrated against an anionic surfactant as a standard for two-phase titration for the determination of active matter.\nCritical micelle concentration at 25° C. is 2.29×10^−3 mM"}},
  "data": [
    {"compound": "COc1ccc(C=CC(=O)NCCCN(C)C)cc1", "note": "[Example 1, p-methoxycinnamido propyldimethylamine]", "values": [
      {"measurement": "Molar extinction coefficient, ∈", "setting": "[1]; in methanol, at 290 nm", "value": "24,224"}
    ]},
    {"compound": "COc1ccc(C=CC(=O)NCCC[N+](C)(C)CC(O)C[N+](C)(C)C)cc1.[Cl-].[Cl-]", "note": "(stereo not shown) [Example 2, p-methoxy cinnamidopropyl (2-hydroxypropyl trimethyl ammonium chloride) dimonium chloride]", "values": [
      {"measurement": "Molar extinction coefficient, ∈", "setting": "[1]; in water, at 290 nm", "value": "22,000 mol^−1cm^−1"}
    ]},
    {"compound": "CCCCCCCCCCCC[N+](C)(C)CC(O)C[N+](C)(C)CCCNC(=O)C=Cc1ccc(OC)cc1.[Cl-].[Cl-]", "note": "(stereo not shown) [Example 3, p-methoxy cinnamidopropyl (2-hydroxypropyl lauryl dimethyl ammonium chloride) dimonium chloride]", "values": [
      {"measurement": "minimum growth inhibitory concentration", "setting": "[2]", "value": 0.5, "unit": "%"},
      {"measurement": "Molar extinction coefficient, ∈", "setting": "[1]; in water, at 305 nm", "value": "19,500 mol^−1cm^−1"},
      {"measurement": "minimum growth inhibitory concentration", "setting": "[3]", "value": 0.3, "unit": "%"},
      {"measurement": "minimum growth inhibitory concentration", "setting": "[4]", "value": 0.4, "unit": "%"},
      {"measurement": "minimum growth inhibitory concentration", "setting": "[5]", "value": 0.3, "unit": "%"},
      {"measurement": "minimum growth inhibitory concentration", "setting": "[6]", "value": 0.5, "unit": "%"},
      {"measurement": "minimum growth inhibitory concentration", "setting": "[7]", "value": 0.4, "unit": "%"}
    ]},
    {"compound": "CCCCCCCCCCCCCCCCCC[N+](C)(C)CC(O)C[N+](C)(C)CCCNC(=O)/C=C/c1ccc(OC)cc1", "note": "(stereo not shown) [Example 4, p-methoxy cinnamidopropyl (2-hydroxypropyl stearyl dimethyl ammonium chloride) dimonium chloride]", "values": [
      {"measurement": "Charge density", "setting": "[8]", "value": 0.3066, "unit": "meq/gram"},
      {"measurement": "Zeta potential", "setting": "[8]", "value": "+46 mV"},
      {"measurement": "Zeta potential", "setting": "[8]; listed as Formula I, R═C18H37 and R1═OCH3", "value": "+47 mV"},
      {"measurement": "minimum growth inhibitory concentration", "setting": "[2]", "value": 0.4, "unit": "%"},
      {"measurement": "Molar extinction coefficient, ∈", "setting": "[1]; in water, at 307 nm", "value": "19,700 mol^−1cm^−1"},
      {"measurement": "Surface effectiveness", "setting": "[9]", "value": 34.2, "unit": "mN/m"},
      {"measurement": "surface efficiency (−log C20)", "setting": "[9]", "value": 6.23},
      {"measurement": "Critical micelle concentration", "setting": "[9]; at 25° C.", "value": 0.00229, "unit": "mM"},
      {"measurement": "minimum growth inhibitory concentration", "setting": "[3]", "value": 0.2, "unit": "%"},
      {"measurement": "minimum growth inhibitory concentration", "setting": "[4]", "value": 0.3, "unit": "%"},
      {"measurement": "minimum growth inhibitory concentration", "setting": "[5]", "value": 0.3, "unit": "%"},
      {"measurement": "minimum growth inhibitory concentration", "setting": "[6]", "value": 0.6, "unit": "%"},
      {"measurement": "minimum growth inhibitory concentration", "setting": "[7]", "value": 0.4, "unit": "%"}
    ]}
  ]
}
